These results are taken from PubChem BioAssay (NCI).

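Briefly, cells in 96-well plates were exposed to five compound concentrations for 48 h, and endpoints were estimated by linear interpolation. TGI is the concentration that stops growth completely.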

Test systems include HOP-62 NSCLC; DU-145 prostate; HCT-116 colon; HT29 colon; TK-10 renal; MDA-MB-435; A498 renal; LOX IMVI melanoma; MDA-N; SR leukemia; SF-295 CNS; CAKI-1 renal; SW-620 colon; SN12C renal; NCI-H226 lung; PC-3 prostate; UACC-62 melanoma; U251 CNS; A549 NSCLC; UO-31 renal.
What all share (assay): NCI anticancer screen, dose series, 48 h

Regarding `CCOc1cc(NC(C)=O)ccc1C(=O)N/N=C/c1ccco1`, the TGI in the assay on HOP-62 NSCLC, in the assay with DU-145 prostate, in the assay with HCT-116 colon, with HT29 colon, with TK-10 renal and in the assay on MDA-MB-435 was more than 100 µM throughout. Besides, the TGI in the assay with A498 renal was more than 100 µM; with LOX IMVI melanoma it was more than 100 µM; with MDA-N, more than 100 µM; with SR leukemia, 31.3 µM; in the assay with SF-295 CNS, more than 100 µM; in the assay with CAKI-1 renal, more than 100 µM. The TGI with SW-620 colon, in the assay with SN12C renal, in the assay with NCI-H226 lung, in the assay on PC-3 prostate and in the assay on UACC-62 melanoma was more than 100 µM throughout.

Turning to `CCOC(=O)N/N=C/C1=NN(C(=O)OCC)S(=O)C1C` (configuration not stated), the TGI in the assay with HOP-62 NSCLC, in the assay with DU-145 prostate, with HCT-116 colon, in the assay on HT29 colon, in the assay on U251 CNS and in the assay on A549 NSCLC was more than 100 µM throughout. The TGI in the assay on TK-10 renal, with MDA-MB-435, in the assay with A498 renal, in the assay on UO-31 renal, with MDA-N and in the assay with SR leukemia was more than 100 µM each time. Besides, the TGI in the assay on SF-295 CNS, in the assay with CAKI-1 renal, with SW-620 colon, in the assay on SN12C renal, in the assay with NCI-H226 lung and in the assay with PC-3 prostate was more than 100 µM throughout. The compound also showed a TGI in the assay on UACC-62 melanoma of more than 100 µM.

Take `O=C(CN1CCOCC1)c1ccc2[nH]c(=O)oc2c1`: the TGI with HOP-62 NSCLC, with DU-145 prostate, in the assay with HCT-116 colon, in the assay on HT29 colon, in the assay with U251 CNS and in the assay on TK-10 renal was more than 100 µM in each case. Also, the TGI in the assay with MDA-MB-435, in the assay on A498 renal, with UO-31 renal, in the assay on LOX IMVI melanoma, in the assay on MDA-N and in the assay on SR leukemia was more than 100 µM each time. The TGI in the assay on SF-295 CNS, in the assay with CAKI-1 renal, in the assay on SW-620 colon, in the assay on SN12C renal, with NCI-H226 lung and with PC-3 prostate was more than 100 µM throughout. Besides, the TGI in the assay with UACC-62 melanoma is more than 100 µM.

For the compound `N#Cc1cc2c(n(C3OC(CO)C(O)C(O)C3O)c1=S)CCCCC2` (configuration not stated), the TGI with HOP-62 NSCLC, in the assay on DU-145 prostate, with HCT-116 colon, with HT29 colon, in the assay on U251 CNS and in the assay with A549 NSCLC was more than 100 µM each time. In addition, the TGI with TK-10 renal, in the assay on MDA-MB-435, in the assay on A498 renal, with UO-31 renal, in the assay with LOX IMVI melanoma and with MDA-N was more than 100 µM throughout. Besides, the TGI in the assay on SR leukemia, in the assay on SF-295 CNS, in the assay with CAKI-1 renal, in the assay on SN12C renal, in the assay on NCI-H226 lung and in the assay with PC-3 prostate was more than 100 µM throughout. Also, in the assay with UACC-62 melanoma, the TGI is more than 100 µM.

Take `Nc1nc(N)nc(-c2cnc3ccccc3c2)n1`: the TGI with HOP-62 NSCLC, in the assay with DU-145 prostate, in the assay with HCT-116 colon, in the assay on U251 CNS, with A549 NSCLC and with TK-10 renal was more than 100 µM in each case. Moreover, the TGI in the assay with MDA-MB-435, in the assay with A498 renal, in the assay on UO-31 renal, in the assay on LOX IMVI melanoma, with MDA-N and with SR leukemia was more than 100 µM in each case. Besides, the TGI with SF-295 CNS, with CAKI-1 renal, in the assay on SW-620 colon, in the assay on SN12C renal, in the assay on NCI-H226 lung and in the assay on PC-3 prostate was more than 100 µM in each case. This compound also showed a TGI with UACC-62 melanoma of more than 100 µM.

Regarding `Nc1cc(OCc2ccccc2)c(OCc2ccccc2)cc1C=O`, the TGI with DU-145 prostate is more than 100 µM; with HCT-116 colon, 96.8 µM; in the assay with HT29 colon, more than 100 µM; in the assay with U251 CNS, 93.9 µM; in the assay with A549 NSCLC, more than 100 µM; in the assay with TK-10 renal, 67.8 µM. The TGI in the assay with MDA-MB-435 was more than 100 µM; with A498 renal it was 44.2 µM; with LOX IMVI melanoma, 77.2 µM; with MDA-N it was more than 100 µM; in the assay on SR leukemia, more than 100 µM; in the assay with SF-295 CNS, 70 µM. For the same compound, the TGI in the assay on SW-620 colon, with SN12C renal, in the assay on NCI-H226 lung and in the assay with PC-3 prostate was more than 100 µM each time.

Consider `C[C@@]12C[C@@H](c3ccccc3O1)N1CCSC1=N2`, for which the TGI in the assay with HOP-62 NSCLC, in the assay with DU-145 prostate, in the assay on HCT-116 colon, in the assay on HT29 colon, in the assay with U251 CNS and in the assay with TK-10 renal was more than 100 µM in each case. Moreover, the TGI in the assay with MDA-MB-435, in the assay on A498 renal, with UO-31 renal, in the assay with LOX IMVI melanoma, with MDA-N and in the assay on SR leukemia was more than 100 µM in each case. The TGI in the assay on SF-295 CNS, with CAKI-1 renal, in the assay with SW-620 colon, in the assay with SN12C renal, with NCI-H226 lung and in the assay with PC-3 prostate was more than 100 µM each time. For the same compound, the TGI with UACC-62 melanoma is more than 100 µM.

As for `CCC(C)[C@H]1C(=O)N=C(N)N1C(=O)OCc1ccccc1` (some centres not stated), the TGI in the assay on HOP-62 NSCLC, in the assay on DU-145 prostate, in the assay on HCT-116 colon, with HT29 colon, in the assay on U251 CNS and with TK-10 renal was more than 100 µM each time. In addition, the TGI in the assay on MDA-MB-435, with A498 renal, with UO-31 renal, with LOX IMVI melanoma, with MDA-N and with SR leukemia was more than 100 µM each time. The TGI with SF-295 CNS, with CAKI-1 renal, in the assay with SW-620 colon, with SN12C renal, in the assay with NCI-H226 lung and in the assay on PC-3 prostate was more than 100 µM each time. Moreover, the TGI in the assay on UACC-62 melanoma was more than 100 µM.
